Values joined by “and” are separate entries in the source; they are usually repeats but may differ in a detail not shown here. Equal entries are not always repeated. Where two headings read alike, the source gives them in different places. Marks after values point to notes of the source that are not given here.

For orientation: IC50 means the concentration that gives 50% inhibition. Usually logD stands for lipophilicity at a set pH, counting ionised and neutral species. High values mean higher lipophilicity, low ones lower lipophilicity.

The subject of one series is purified tubulin. Description: Inhibition of tubulin polymerization. Type of series: biochemical. The note with it: read-out: Inhibition of tubulin polymerization IC50 ± SD. An excerpt: As a reference for comparison, combretastatin A-4 (CA-4) and Cu(HL^1)Cl2 were used.
(§1) The methods used for determination of the IC50 values for tubulin assembly and inhibition of [^3H]colchicine binding were as described previously.[77]

Series [1] relates to tubulin (colchicine site). Description: Inhibition of [3H]colchicine binding to tubulin. The note with it: tubulin 0.5 μM, [3H]colchicine 5 μM.
Excerpt: as §1

Series [2] concerns A549 human lung adenocarcinoma cells. Description: MTT viability assay, 24 h. Conditions: Homo sapiens, A549, 24 h, read-out: IC50 values A549.
Method: (§2) We wanted to compare the cytotoxicity of proligands HL^1–HL^3 and of their Co(III) and Fe(III) complexes 1, 2 and 4, 5 on cell lines originating from the same tissue, so human lung carcinoma A549 cells and lung fibroblast MRC-5 cells were subjected to 24 h treatments.
(§3) The biological effects of selected metal complexes (1, 2, 4 and 5) and of their proligands (HL^1, HL^2 and HL^3) were tested more extensively on A549 human lung adenocarcinoma cells and on MRC-5 human lung fibroblast cells. Both cell lines were obtained from ATCC and maintained in DMEM cell culture media containing 1.0 g L^−1 glucose (Biosera, Nuaille, France) complemented with 10% fetal bovine serum (FBS), 2 mM L-glutamine, 0.01% streptomycin and 0.005% penicillin and were cultured under standard conditions in a 37 °C incubator at 5% CO2 and 95% humidity. The viability of A549 and of MRC-5 fibroblast cells upon exposure to the selected metal–ligand complexes and ligands were evaluated by the MTT assay. For this, 10 000 cells per well were seeded into 96-well plates and left to grow. On the next day the cells were exposed to 0, 5, 10, 20, 40 or 80 μM of each compound or to an equivalent volume of DMSO for 24 h. After the treatments, cells were washed with PBS and then were incubated with 0.5 mg mL^−1 MTT reagent (Sigma-Aldrich, St Louis, Missouri, USA) for 1 h at 37 °C. Finally, 100 μL of DMSO (Molar Chemicals, Halásztelek, Hungary) was added to each well, and the absorbance of samples was measured at 570 nm using a Synergy HTX plate reader (BioTek, Winooski, Vermont, USA). The viability measurements were repeated three times using 3 independent biological replicates.
Series [3] in a line: pKa by pH-potentiometric titration. Format: physicochemical. The note with it: 30% (v/v) DMSO/H2O, 25.0 °C, I = 0.1 M (KCl), anoxic. Here is the method:
Therefore, the proton dissociation constants (pKa) of the proligands HL^1–HL^3 were determined under anoxic conditions by pH-potentiometric titrations (Fig. S14 in the ESI ^†). As this method requires relatively high compound concentrations (>1 mM), the measurements were performed in 30% (v/v) DMSO to achieve the required solubility. Three pKa values were determined for the proligands HL^1 and HL^2, whereas only two constants, as expected, were obtained for phenyl derivative HL^3 (Table 3). The constants obtained were assigned to the deprotonation NmorpholiniumH^+ (NmorphH^+), NhydrazineH (NhydrH) and OH moieties for HL^1 and HL^2, and to the NmorphH^+ and NhydrH for HL^3, respectively. It should be noted that we could not determine pKa values for the pyridinium group as its deprotonation in all three instances took place at fairly low pH values (pH < 2) due to the electron withdrawing effect of the protonated morpholinium moiety. The determined pKa values indicate that these compounds are in their neutral HL form at pH 7.4 and only a minor fraction (1–3%) is protonated ((HL)H^+) at the morpholinium nitrogen (Table 3).

Series [4] in a line: n-octanol/water partitioning (shake-flask), log D. The note with it: n-octanol/buffered aqueous solution, pH 6.
Series [5] concerns MRC-5 human lung fibroblast cells. As to the kind of experiment: MTT viability assay, 24 h. Conditions: Homo sapiens, MRC5, 24 h, read-out: IC50 values MRC-5.
Method: as §2, §3
A short description of series [6]: Cyclic voltammetry in DMSO/nBu4NPF6. Conditions: scan rate 100 mV s^−1. Format: physicochemical. The protocol: Cyclic voltammetric experiments with 0.5 mM solutions of 1–3 in 0.1 M nBu4NPF6 (puriss quality from Fluka (Schwerte, Germany), dried under reduced pressure at 70 °C for 24 h before use) supporting electrolyte in DMSO (SeccoSolv max. 0.025% H2O, Merck) were performed under argon atmosphere using a three-electrode setup with a platinum disk or a glassy carbon disk working electrode (from Ionode, Australia), platinum wire as a counter electrode, and silver wire as a pseudo reference electrode. All potentials in voltammetric studies were quoted vs. ferricenium/ferrocene (Fc^+/Fc) redox couple. A Heka PG310USB (Lambrecht, Germany) potentiostat with a PotMaster 2.73 software package served for the potential control in voltammetric studies. In situ ultraviolet-visible-near-infrared (UV–Vis–NIR) spectroscopic and spectroelectrochemical measurements were performed on a spectrometer Avantes (Model AvaSpec-2048_14-USB2) in 1 cm quartz cuvette or the spectroelectrochemical cell kit ([…]3) with the Pt-microstructured honeycomb working electrode, purchased from Pine Research Instrumentation (Lyon, France). The cell was positioned in the CUV-UV Cuvette Holder (Ocean Optics, Ostfildern, Germany) connected to the diode-array UV–Vis–NIR spectrometer by optical fibres. UV–Vis–NIR spectra were processed using the AvaSoft 7.7 software package. Halogen and deuterium lamps were used as light sources (Avantes, Model AvaLight-DH-S-BAL, Apeldoorn, The Netherlands). EPR spectra were measured with a X-band cw-EPR spectrometers EMX and EMX plus (Bruker) at room temperature or 100 K. Spectroelectrochemical experiments were performed in a flat cell equipped with a Pt mesh working electrode using nBu4NPF6/DMSO electrolyte. Measurements in frozen solvent glass were done in MeCN/DMF 1 : 1 v/v. Complexes 4 and 5 were dissolved under ambient conditions, and complex 3 was reduced with a stoichiometric equivalent of cobaltocene in a N2 glovebox (N2 < 2 ppm, H2O < 1 ppm). The MeCN/DMF solutions were flash frozen in liquid N2 prior to transfer to the N2 flow cryostat precooled at 100 K inside the cavity of the EPR resonator. EPR spectra were analyzed with the Easyspin toolbox,[75] running on Matlab.

Turning to `COc1ccc(/C=C\c2cc(OC)c(OC)c(OC)c2)cc1O` [C-A4, combretastatin A-4, reference compound], the IC50 with purified tubulin stood at […]. In addition, in series [1] (5 μM inhibitor), the “Inhibition of colchicine binding, % inhibition ± SD” value (“Inhibition … % inhibition ± SD” below) is 97 ± 0.5%.
With `Cc1cc(NC(=S)N/N=C/c2cccc(CN3CCOCC3)n2)cc(C)c1O` [HL^1, 6-morpholinomethyl-2-formylpyridine 4N-(4-hydroxy-3,5-dimethylphenyl)-3-thiosemicarbazone], the concentration for half-maximal inhibition (IC50) is 72.8 ± 1.22 µM in series [2] and greater than 80 µM in series [5]. The results for the pKa in series [3] (read-out: pKa (NhydrH)), in series [3] (read-out: pKa (NmorphH^+)) and in series [3] (read-out: pKa (OH)) were 10.44 ± 0.03, 5.54 ± 0.03 and 12.12 ± 0.02, respectively. For the same compound, in series [4], the logD came to 1.23.
As to `C/C(=N\NC(=S)Nc1cc(C)c(O)c(C)c1)c1cccc(CN2CCOCC2)n1` [HL^2, 6-morpholinomethyl-2-acetylpyridine 4N-(4-hydroxy-3,5-dimethylphenyl)-3-thiosemicarbazone], the IC50 in series [2] and in series [5] was greater than 80 µM in each case. The pKa in series [3] (read-out: pKa (NhydrH)) was 10.41 ± 0.03; in series [3] (read-out: pKa (NmorphH^+)) it was 5.85 ± 0.04; in series [3] (read-out: pKa (OH)), 12.23 ± 0.02. For the same compound, the logD in series [4] was 1.5.
Regarding `Cc1cc(NC([S-])=NN=Cc2cccc(C[NH+]3CCOCC3)n2)cc(C)c1O.[Cl-].[Cl-].[Pd+2]` [Complex 8, [Pd^II(HL^1)Cl]Cl], the IC50 in the series with purified tubulin was determined as 6.5 ± 1 µM. Also, in series [6], the “1st oxidation potential (peak potential Ep)” value was 0.28 volts vs. Fc^+/Fc and 0.28^i* volts vs. Fc^+/Fc; the “1st reduction potential (E1/2 or Ep)” value was −0.91^q volts vs. Fc^+/Fc; the “2nd reduction potential (E1/2 or Ep)” value is recorded as −1.28^q volts vs. Fc^+/Fc. Besides, the “Inhibition … % inhibition ± SD” value in series [1] (5 μM inhibitor) was 13 ± 5%. Besides, the “Inhibition … % inhibition ± SD” value in series [1] (25 μM inhibitor) amounted to 97 ± 1%.
For the compound `S=C(N/N=C/c1cccc(CN2CCOCC2)n1)Nc1ccccc1` [HL^3, 6-morpholinomethyl-2-formylpyridine 4N-phenyl-3-thiosemicarbazone], the IC50 in series [2] and in series [5] was greater than 80 µM throughout. Further, the pKa in series [3] (read-out: pKa (NhydrH)) came to 10.44 ± 0.03; in series [3] (read-out: pKa (NmorphH^+)), 5.55 ± 0.02. The logD in series [4] was 2.06.
As for `Cc1cc(NC([S-])=NN=Cc2cccc(CN3CCOCC3)n2)cc(C)c1O.[Cl-].[Ni+2]` [Complex 6, [Ni^II(L^1)]Cl], in the series with purified tubulin, the IC50 is greater than 20 µM. Moreover, in series [6], the “1st oxidation potential (peak potential Ep)” value is 0.12 volts vs. Fc^+/Fc and 0.12^i* volts vs. Fc^+/Fc; the “1st reduction potential (E1/2 or Ep)” value is −1.29 volts vs. Fc^+/Fc and −1.29^q volts vs. Fc^+/Fc; the “2nd reduction potential (E1/2 or Ep)” value was −1.87 volts vs. Fc^+/Fc and −1.87^q volts vs. Fc^+/Fc.
